Results from ChEMBL document CHEMBL5723585, “Data for DCP probe JNJ-54082730” (2024).
Active and inactive are the calls of the source. The rule behind the calls is not given here.

Legend:
[1] = target: Neuromedin-K receptor (Homo sapiens) (UniProt P29371); assay: NK3 Eurofins-Cerep binding assay; parameters: ligand concentration 0.4 nM; details: filed as antagonist, Compound concentration 10.0 uM
[2] = target: GABA-A receptor; anion channel (Rattus norvegicus) (UniProt O09028+P15431+P18506+P18508+P19969+P20236+P23574+P23576+P28471+P28473+P30191+P62813+P63079+P63138+Q91ZM7+Q9ES14); assay: GABA (non-selective) Eurofins-Cerep binding assay; assay type: protein-complex assay; parameters: ligand concentration 10 nM; details: filed as agonist, Compound concentration 10.0 uM
[3] = target: 5-hydroxytryptamine receptor 3A (Homo sapiens) (UniProt P46098); assay: 5-HT3 Eurofins-Cerep binding assay; parameters: ligand concentration 0.5 nM; details: filed as antagonist, Compound concentration 10.0 uM
Sequence of 5-hydroxytryptamine receptor 3A (Homo sapiens) (P46098 whole entry): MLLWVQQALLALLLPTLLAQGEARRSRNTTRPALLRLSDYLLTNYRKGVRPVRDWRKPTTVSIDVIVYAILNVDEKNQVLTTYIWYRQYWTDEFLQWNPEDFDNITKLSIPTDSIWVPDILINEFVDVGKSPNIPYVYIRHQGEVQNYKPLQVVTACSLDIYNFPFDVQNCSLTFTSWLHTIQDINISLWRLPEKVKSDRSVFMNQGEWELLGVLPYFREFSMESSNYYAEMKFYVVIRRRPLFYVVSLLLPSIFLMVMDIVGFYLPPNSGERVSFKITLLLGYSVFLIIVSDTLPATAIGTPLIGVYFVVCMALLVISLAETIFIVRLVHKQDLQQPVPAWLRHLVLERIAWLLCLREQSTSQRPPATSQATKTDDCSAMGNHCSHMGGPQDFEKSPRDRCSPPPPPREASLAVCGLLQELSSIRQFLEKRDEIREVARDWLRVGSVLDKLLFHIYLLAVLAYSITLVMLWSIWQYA

[4] = target: Melanocortin receptor 4 (Homo sapiens) (UniProt P32245); assay: MC4 Eurofins-Cerep binding assay; parameters: ligand concentration 0.05 nM; details: filed as agonist, Compound concentration 10.0 uM
[5] = target: Type-1 angiotensin II receptor (Homo sapiens) (UniProt P30556); assay: AT1 Eurofins-Cerep binding assay; details: filed as antagonist, Compound concentration 10.0 uM
Sequence of Type-1 angiotensin II receptor (Homo sapiens) (P30556 whole entry): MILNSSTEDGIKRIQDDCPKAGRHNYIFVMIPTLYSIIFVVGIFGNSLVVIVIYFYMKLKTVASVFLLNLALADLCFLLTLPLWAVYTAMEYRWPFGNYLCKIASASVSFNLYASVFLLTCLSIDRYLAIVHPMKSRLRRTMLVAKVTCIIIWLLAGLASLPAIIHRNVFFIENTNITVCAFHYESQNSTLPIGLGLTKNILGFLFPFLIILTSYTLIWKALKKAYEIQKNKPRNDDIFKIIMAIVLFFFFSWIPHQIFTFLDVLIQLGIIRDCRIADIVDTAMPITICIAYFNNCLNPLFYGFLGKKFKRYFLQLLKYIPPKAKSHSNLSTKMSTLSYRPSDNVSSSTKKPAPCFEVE

[6] = target: cAMP and cAMP-inhibited cGMP 3',5'-cyclic phosphodiesterase 10A (Homo sapiens, UniProt Q9Y233); assay: IC50 of hPDE10A2 in the PDE screen at 1.0 µM
Sequence of cAMP and cAMP-inhibited cGMP 3',5'-cyclic phosphodiesterase 10A (Q9Y233 whole entry): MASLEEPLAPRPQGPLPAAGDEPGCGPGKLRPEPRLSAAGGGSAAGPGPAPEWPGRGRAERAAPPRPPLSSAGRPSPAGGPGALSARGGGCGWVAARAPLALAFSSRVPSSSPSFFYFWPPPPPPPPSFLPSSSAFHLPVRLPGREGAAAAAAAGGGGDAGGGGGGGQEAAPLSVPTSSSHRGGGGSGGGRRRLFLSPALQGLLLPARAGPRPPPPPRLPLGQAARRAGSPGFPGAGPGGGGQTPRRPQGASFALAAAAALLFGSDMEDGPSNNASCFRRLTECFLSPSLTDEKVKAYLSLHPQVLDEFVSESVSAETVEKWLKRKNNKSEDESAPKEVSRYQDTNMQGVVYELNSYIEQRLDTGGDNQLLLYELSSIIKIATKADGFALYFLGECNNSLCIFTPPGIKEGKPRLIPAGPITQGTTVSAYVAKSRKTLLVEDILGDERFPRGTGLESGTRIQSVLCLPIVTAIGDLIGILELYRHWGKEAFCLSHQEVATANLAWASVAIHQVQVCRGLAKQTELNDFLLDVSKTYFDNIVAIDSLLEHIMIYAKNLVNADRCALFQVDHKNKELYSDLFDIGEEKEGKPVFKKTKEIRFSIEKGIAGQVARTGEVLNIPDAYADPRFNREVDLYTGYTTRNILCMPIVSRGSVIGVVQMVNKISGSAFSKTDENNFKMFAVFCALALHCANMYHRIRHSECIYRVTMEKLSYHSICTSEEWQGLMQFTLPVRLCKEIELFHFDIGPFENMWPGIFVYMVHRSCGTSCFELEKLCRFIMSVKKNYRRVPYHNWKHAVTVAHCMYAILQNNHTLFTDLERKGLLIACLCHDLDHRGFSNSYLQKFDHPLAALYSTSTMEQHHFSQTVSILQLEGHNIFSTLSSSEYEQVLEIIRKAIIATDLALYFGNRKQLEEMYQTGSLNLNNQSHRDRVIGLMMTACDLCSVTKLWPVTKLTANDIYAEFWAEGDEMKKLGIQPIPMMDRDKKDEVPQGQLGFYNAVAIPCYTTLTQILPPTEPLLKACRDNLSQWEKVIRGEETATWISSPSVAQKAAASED

[7] = species: Rattus norvegicus; assay: alpha 2 (non-selective) Eurofins-Cerep binding assay; assay type: protein assay; parameters: ligand concentration 1 nM; details: filed as antagonist, Compound concentration 10.0 uM
[8] = target: 5-hydroxytryptamine receptor 1B (Homo sapiens) (UniProt P28222); assay: 5-HT1B Eurofins-Cerep binding assay; parameters: ligand concentration 1 nM; details: filed as antagonist, Compound concentration 10.0 uM
[9] = target: 5-hydroxytryptamine receptor 1A (Homo sapiens) (UniProt P08908); assay: 5-HT1A Eurofins-Cerep binding assay; parameters: ligand concentration 0.5 nM; details: filed as agonist, Compound concentration 10.0 uM
[10] = target: Beta-1 adrenergic receptor (Homo sapiens) (UniProt P08588); assay: beta 1 Eurofins-Cerep binding assay; parameters: ligand concentration 0.3 nM; details: filed as agonist, Compound concentration 10.0 uM
[11] = target: Sodium-dependent serotonin transporter (Homo sapiens) (UniProt P31645); assay: 5-HT transporter Eurofins-Cerep binding assay; parameters: ligand concentration 2 nM; details: filed as antagonist, Compound concentration 10.0 uM
[12] = target: Endothelin-1 receptor (Homo sapiens) (UniProt P25101); assay: ETA Eurofins-Cerep binding assay; parameters: ligand concentration 0.03 nM; details: filed as agonist, Compound concentration 10.0 uM
[13] = target: B2 bradykinin receptor (Homo sapiens) (UniProt P30411); assay: B2 Eurofins-Cerep binding assay; parameters: ligand concentration 0.3 nM; details: filed as agonist, Compound concentration 10.0 uM
[14] = target: 5-hydroxytryptamine receptor 2B (Homo sapiens) (UniProt P41595); assay: 5-HT2B Eurofins-Cerep binding assay; details: filed as agonist, Compound concentration 10.0 uM
[15] = target: Substance-K receptor (Homo sapiens) (UniProt P21452); assay: NK2 Eurofins-Cerep binding assay; parameters: ligand concentration 0.1 nM; details: filed as agonist, Compound concentration 10.0 uM
[16] = target: Vasopressin V1a receptor (Homo sapiens) (UniProt P37288); assay: V1a Eurofins-Cerep binding assay; parameters: ligand concentration 0.3 nM; details: filed as agonist, Compound concentration 10.0 uM
[17] = species: Rattus norvegicus; assay: Ca2+ channel (L,verapamil site) (phenylalkylamine) Eurofins-Cerep binding assay; assay type: protein assay; parameters: ligand concentration 3 nM; details: filed as antagonist, Compound concentration 10.0 uM
[18] = target: Adenosine receptor A1 (Homo sapiens) (UniProt P30542); assay: A1 Eurofins-Cerep binding assay; parameters: ligand concentration 1 nM; details: filed as antagonist, Compound concentration 10.0 uM
Sequence of Adenosine receptor A1 (Homo sapiens) (P30542 whole entry): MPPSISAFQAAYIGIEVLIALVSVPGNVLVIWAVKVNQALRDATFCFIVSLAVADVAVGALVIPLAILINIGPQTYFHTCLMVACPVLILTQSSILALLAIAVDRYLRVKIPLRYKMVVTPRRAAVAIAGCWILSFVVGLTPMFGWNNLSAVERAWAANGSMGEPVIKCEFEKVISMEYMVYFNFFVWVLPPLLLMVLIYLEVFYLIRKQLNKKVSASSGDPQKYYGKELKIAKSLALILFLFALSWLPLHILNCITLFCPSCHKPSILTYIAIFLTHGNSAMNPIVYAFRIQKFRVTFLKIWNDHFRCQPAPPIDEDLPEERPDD

[19] = IC50 of bovine retina PDE6 in the PDE screen at 1.0 µM; parameters: species or system Bos taurus
[20] = species: Rattus norvegicus; assay: BZD (central) Eurofins-Cerep binding assay; details: filed as agonist, Compound concentration 10.0 uM
[21] = target: Neurotensin receptor type 1 (Homo sapiens) (UniProt P30989); assay: NTS1 (NT1) Eurofins-Cerep binding assay; parameters: ligand concentration 0.05 nM; details: filed as agonist, Compound concentration 10.0 uM
Sequence of Neurotensin receptor type 1 (Homo sapiens) (P30989 whole entry): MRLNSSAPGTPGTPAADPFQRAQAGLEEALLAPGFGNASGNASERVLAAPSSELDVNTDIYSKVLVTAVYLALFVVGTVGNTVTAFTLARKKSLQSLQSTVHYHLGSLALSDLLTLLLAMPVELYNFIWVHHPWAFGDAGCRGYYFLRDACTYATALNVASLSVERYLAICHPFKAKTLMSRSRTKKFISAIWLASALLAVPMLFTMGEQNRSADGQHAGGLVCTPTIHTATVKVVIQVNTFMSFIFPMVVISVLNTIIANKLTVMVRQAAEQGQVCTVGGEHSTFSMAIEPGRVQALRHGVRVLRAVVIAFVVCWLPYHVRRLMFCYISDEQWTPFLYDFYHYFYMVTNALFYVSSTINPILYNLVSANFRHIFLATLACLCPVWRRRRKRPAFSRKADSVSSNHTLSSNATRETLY

[22] = species: Rattus norvegicus; assay: KV channel Eurofins-Cerep binding assay; parameters: ligand concentration 0.01 nM; details: filed as antagonist, Compound concentration 10.0 uM
[23] = target: Kappa-type opioid receptor (Homo sapiens) (UniProt P41145); assay: kappa (KOP) Eurofins-Cerep binding assay; details: filed as agonist, Compound concentration 10.0 uM
[24] = target: 3',5'-cyclic-AMP phosphodiesterase 4D (Homo sapiens, UniProt Q08499); assay: IC50 of hPDE4D3 in the PDE screen at 1.0 µM
Sequence of 3',5'-cyclic-AMP phosphodiesterase 4D (Q08499 whole entry): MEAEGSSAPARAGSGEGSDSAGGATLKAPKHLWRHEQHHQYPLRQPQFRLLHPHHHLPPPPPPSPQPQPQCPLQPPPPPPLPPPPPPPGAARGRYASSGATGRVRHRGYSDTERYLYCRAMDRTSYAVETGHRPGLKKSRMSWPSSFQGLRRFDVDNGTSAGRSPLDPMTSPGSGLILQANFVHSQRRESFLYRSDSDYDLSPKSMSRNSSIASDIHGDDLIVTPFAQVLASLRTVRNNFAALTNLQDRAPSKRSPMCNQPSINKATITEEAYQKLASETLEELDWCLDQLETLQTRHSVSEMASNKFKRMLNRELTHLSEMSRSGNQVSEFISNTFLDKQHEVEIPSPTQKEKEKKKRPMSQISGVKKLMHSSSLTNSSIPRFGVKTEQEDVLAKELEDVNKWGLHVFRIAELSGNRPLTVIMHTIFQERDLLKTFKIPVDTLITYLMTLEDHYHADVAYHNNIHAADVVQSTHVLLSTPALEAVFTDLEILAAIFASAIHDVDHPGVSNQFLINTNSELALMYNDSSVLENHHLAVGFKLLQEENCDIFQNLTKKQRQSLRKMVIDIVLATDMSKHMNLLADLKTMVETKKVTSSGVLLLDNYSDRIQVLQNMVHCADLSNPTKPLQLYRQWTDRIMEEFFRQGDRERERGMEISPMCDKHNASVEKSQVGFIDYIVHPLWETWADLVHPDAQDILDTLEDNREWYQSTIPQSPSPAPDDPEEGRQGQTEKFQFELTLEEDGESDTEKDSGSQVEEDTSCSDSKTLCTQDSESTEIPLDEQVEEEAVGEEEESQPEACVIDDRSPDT

[25] = target: Neuropeptide Y receptor type 2 (Homo sapiens) (UniProt P49146); assay: Y2 Eurofins-Cerep binding assay; parameters: ligand concentration 0.015 nM; details: filed as agonist, Compound concentration 10.0 uM
[26] = target: D(1A) dopamine receptor (Homo sapiens) (UniProt P21728); assay: D1 Eurofins-Cerep binding assay; parameters: ligand concentration 0.3 nM; details: filed as antagonist, Compound concentration 10.0 uM
Sequence of D(1A) dopamine receptor (Homo sapiens) (P21728 whole entry): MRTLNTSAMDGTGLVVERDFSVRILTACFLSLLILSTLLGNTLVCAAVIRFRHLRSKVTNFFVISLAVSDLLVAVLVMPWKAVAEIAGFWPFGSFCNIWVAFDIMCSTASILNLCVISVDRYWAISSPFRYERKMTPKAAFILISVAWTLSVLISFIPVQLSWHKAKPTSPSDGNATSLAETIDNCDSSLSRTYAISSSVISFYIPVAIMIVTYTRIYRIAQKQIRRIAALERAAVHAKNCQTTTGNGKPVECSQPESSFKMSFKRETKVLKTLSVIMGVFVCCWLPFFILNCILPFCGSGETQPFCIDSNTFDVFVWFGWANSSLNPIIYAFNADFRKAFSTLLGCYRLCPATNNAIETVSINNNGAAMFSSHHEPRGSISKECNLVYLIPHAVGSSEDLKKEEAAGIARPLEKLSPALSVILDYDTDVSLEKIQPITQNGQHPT

[27] = target: cGMP-dependent 3',5'-cyclic phosphodiesterase (Homo sapiens, UniProt O00408); assay: Scintillation proximity assay (PDE2A) ( Mean (95% Confidence Interval) = 0.8 -1 nM; Ki = 0.7 nM)
[28] = target: High affinity cAMP-specific and IBMX-insensitive 3',5'-cyclic phosphodiesterase 8A (Homo sapiens, UniProt O60658); assay: IC50 of hPDE8A1 in the PDE screen at 1.0 µM
[29] = target: High affinity cGMP-specific 3',5'-cyclic phosphodiesterase 9A (Homo sapiens, UniProt O76083); assay: IC50 of hPDE9A in the PDE screen at 1.0 µM
[30] = target: Dual specificity calcium/calmodulin-dependent 3',5'-cyclic nucleotide phosphodiesterase 1B (Homo sapiens, UniProt Q01064); assay: IC50 of hPDE1B1 in the PDE screen at 1.0 µM
Sequence of Dual specificity calcium/calmodulin-dependent 3',5'-cyclic nucleotide phosphodiesterase 1B (Q01064 whole entry): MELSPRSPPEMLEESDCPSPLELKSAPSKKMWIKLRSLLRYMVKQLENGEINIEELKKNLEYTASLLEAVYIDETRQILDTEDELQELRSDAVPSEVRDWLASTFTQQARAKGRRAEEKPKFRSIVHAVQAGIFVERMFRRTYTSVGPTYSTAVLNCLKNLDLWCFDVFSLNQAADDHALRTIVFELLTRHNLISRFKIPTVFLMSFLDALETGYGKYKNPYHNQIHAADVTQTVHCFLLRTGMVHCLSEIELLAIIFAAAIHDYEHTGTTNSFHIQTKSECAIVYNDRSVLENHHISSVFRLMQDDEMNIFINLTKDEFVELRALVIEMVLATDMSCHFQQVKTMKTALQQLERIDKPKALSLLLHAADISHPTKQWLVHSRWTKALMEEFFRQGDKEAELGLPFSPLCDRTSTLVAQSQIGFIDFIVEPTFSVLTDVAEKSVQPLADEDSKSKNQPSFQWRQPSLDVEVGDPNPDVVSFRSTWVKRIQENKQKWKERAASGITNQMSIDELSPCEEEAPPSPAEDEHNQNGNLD

[31] = target: 5-hydroxytryptamine receptor 6 (Homo sapiens) (UniProt P50406); assay: 5-HT6 Eurofins-Cerep binding assay; parameters: ligand concentration 2 nM; details: filed as agonist, Compound concentration 10.0 uM
Sequence of 5-hydroxytryptamine receptor 6 (Homo sapiens) (P50406 whole entry): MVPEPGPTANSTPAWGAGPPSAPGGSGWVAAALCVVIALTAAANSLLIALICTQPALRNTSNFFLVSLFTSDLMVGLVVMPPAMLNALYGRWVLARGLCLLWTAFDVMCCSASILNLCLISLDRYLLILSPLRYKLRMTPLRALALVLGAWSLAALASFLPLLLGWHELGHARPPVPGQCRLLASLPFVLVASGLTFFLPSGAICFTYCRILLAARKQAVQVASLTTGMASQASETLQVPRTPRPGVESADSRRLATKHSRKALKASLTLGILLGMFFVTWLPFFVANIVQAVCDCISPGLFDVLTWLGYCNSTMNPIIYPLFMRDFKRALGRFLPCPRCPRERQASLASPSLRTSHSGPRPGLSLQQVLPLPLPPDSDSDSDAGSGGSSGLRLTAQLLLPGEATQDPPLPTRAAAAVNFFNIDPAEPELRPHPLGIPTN

`Cc1cc(C(=O)N2CC[C@@H](C)[C@H](c3cc(C(F)F)nc4ncnn34)C2)cc(C)n1` gave a residual activity [1] of 99.8%, a residual activity [2] of 100% and a residual activity [3] of 103%. For the same compound, the residual activity [4] was 111%, the residual activity [5] was 104% and the IC50 [6] was 99 nM (not active). The Ki [6] was 30 nM, the residual activity [7] was 104% and the residual activity [8] was 102%. For the same compound, the residual activity [9] was 99%, the residual activity [10] was 96.8% and the residual activity [11] was 117%. It also gave a residual activity [12] of 102%, a residual activity [13] of 103% and a residual activity [14] of 118%. It also gave a residual activity [15] of 102%, a residual activity [16] of 97.3% and a residual activity [17] of 96.6%. For the same compound, the residual activity [18] was 107%, the IC50 [19] was > 10 µM (not active) and the residual activity [20] was 105%. The residual activity [21] was 111%, the residual activity [22] was 93.6% and the residual activity [23] was 91%. The IC50 [24] was > 10 µM (not active), the residual activity [25] was 109% and the residual activity [26] was 99.2%. For the same compound, the IC50 [27] was 0.9 nM (active), the IC50 [28] was > 10 µM (not active) and the IC50 [29] was > 10 µM (not active). For the same compound, the IC50 [30] was > 10 µM (not active) and the residual activity [31] was 100%.
